According to US11214803B2, “Modulators of YAP1 expression” (Ionis Pharmaceuticals, Inc., priority 2019, dated 2022):
Strand notation (5' to 3'): a small letter for the sugar, then the base; units joined by * are phosphorothioate-linked, units joined directly phosphodiester-linked; [ ] holds rarer units or linkages, { } end groups; capitals alone tell only the bases. k = constrained ethyl (cEt); [5mC] = 5-methylcytosine; d = 2'-deoxy (DNA)

What was measured:
[1] = system: Yap1 mRNA; experiment: Yap1 mRNA levels in CAL33 xenograft tumors (Example 29); format: in vivo, human; conditions: CAL33 xenografts, 50 mg/kg twice weekly for two weeks, relative to PBS treated animals
Protocol: (§1) A xenograft tumor model was used to evaluate activity of modified oligonucleotides targeted to human Yap1. One million CAL33 cells in 30% matrigel were implanted subcutaneously into the flanks of female CrTac:NCr-Foxnlnu (Taconic) mice. When tumors reached an average volume of 100 mm^3, approximately two weeks post-implantation, groups of eight mice were administered at 50 mg/kg twice weekly with modified oligonucleotides for two weeks. ION 792169 was administered as a control.
Tumor samples were collected for measurement of Yap1 mRNA levels by RT-qPCR. Yap1 mRNA levels were measured as previously described using the Human Yap1 primer-probe set RTS4814. Yap1 mRNA levels were normalized to actin-beta content, as measured by primer probe set RTS5002. Results are presented in the tables below as percent control of the amount of Yap1 mRNA relative to PBS treated animals (% control).

[2] = system: CAL33 xenograft tumor; experiment: Tumor volume and tumor weight in CAL33 xenograft tumor model (Example 29); format: in vivo, human; conditions: 50 mg/kg twice weekly for two weeks; for Average Tumor weight: CAL33 xenograft mice, end of study; for Average Tumor Volume: CAL33 xenografts
Protocol: as §1
Tumor volume was measured at the indicated days in the table below. Tumor weight was determined at end of study. Mice were sacrificed when tumors from PBS-treated mice reached 2,000 mm3.

[3] = system: NCI H292 cells; experiment: Cell proliferation assay in NCI H292 cells, CellTiter-Glo (Example 32); format: cell-based, human; conditions: free uptake, approximately 144 hours
Protocol: Modified oligonucleotides described in the studies above were tested at various doses in mucoepidermoid pulmonary carcinoma cell line […]. A control oligonucleotide 792169 was also tested.
(§2) Cultured NCI H292 cells at a density of 1000 cells/well were treated using free uptake with modified oligonucleotides diluted to concentrations described in the tables below. After approximately 144 hours, cell proliferation was measured using the luminescent cell viability CellTiter-Glo® 2.0 Assay (Promega). Results are presented in the tables below as percent control of the amount of luminescence in samples treated with modified oligonucleotides relative to untreated control cells (% UTC).

[4] = system: Yap1 mRNA; experiment: Yap1 mRNA in CAL27 cells, RNA analysis (Example 37); format: cell-based, human; conditions: free uptake, approximately 48 hours
Protocol: Modified oligonucleotides described in the studies above were tested at various doses in tongue squamous cell carcinoma line CAL27. A control oligonucleotide 792169, described herein above, was also tested.
(§3) Cultured CAL27 cells at a density of 5000 cells per well were treated using free uptake with modified oligonucleotides diluted to concentrations described in the tables below. After approximately 48 hours, Yap1 mRNA levels were measured as previously described using the Human Yap1 primer-probe set RTS4814. Yap1 mRNA levels were normalized to actin-beta content, as measured by primer probe set RTS5002. Results are presented in the tables below as percent control of the amount of Yap1 mRNA relative to untreated control cells (% UTC).

[5] = system: Yap1 mRNA; experiment: Yap1 mRNA in SCC-4 cells, RNA analysis (Example 39); format: cell-based, human; conditions: free uptake, approximately 48 hours
Protocol: Modified oligonucleotides described in the studies above were tested at various doses in tongue squamous cell carcinoma cell line SCC 4. A control oligonucleotide 792169, described herein above, was also tested.
as §3, with “SCC-4” for “CAL27”

[6] = system: Yap1 mRNA; experiment: Yap1 mRNA in SNU-1066 cells, RNA analysis (Example 44); format: cell-based, human; conditions: free uptake, approximately 48 hours
Protocol: Modified oligonucleotides described in the studies above were tested at various doses in laryngeal squamous cell carcinoma line SNU-1066. A control oligonucleotide 792169, described herein above, was also tested.
as §3, with “SNU-1066” for “CAL27”

[7] = system: SNU-1076 cells; experiment: Cell proliferation assay in SNU-1076 cells, CellTiter-Glo (Example 45); format: cell-based, human; conditions: free uptake, approximately 144 hours
Protocol: Modified oligonucleotides described in the studies above were tested at various doses in upper aerodigestive tract/laryngeal squamous cell carcinoma line SNU-1076. A control oligonucleotide 792169, described herein above, was also tested.
as §2, with “SNU-1076” for “NCI H292”

[8] = Tolerability in CD-1 mice, plasma chemistry markers (Example 19); format: in vivo; conditions: male CD-1 mice, 50 mg/kg s.c. twice a week for four weeks (8 treatments), day 26
Protocol: CD-1 mice were treated with modified oligonucleotides selected from studies described above and evaluated for changes in the levels of various plasma chemistry markers.
Groups of four male CD-1 mice at 4-6 weeks of age (obtained from Charles River) were injected subcutaneously twice a week for four weeks (for a total of 8 treatments) with 50 mg/kg of modified oligonucleotides. One group of male CD-1 mice was injected with PBS. Mice were euthanized on day 26 post start of treatment (24 hrs following the final administration).

Row | Substance | Yap1 mRNA levels in tumors, % control [1] [% control] | Average Tumor weight [2] [g] | Average Tumor Volume ([2]; day 10 post-implantation) [mm^3] | Average Tumor Volume ([2]; day 13 post-implantation) [mm^3] | Average Tumor Volume ([2]; day 17 post-implantation) [mm^3] | Average Tumor Volume ([2]; day 21 post-implantation) [mm^3] | Average Tumor Volume ([2]; day 24 post-implantation) [mm^3] | Average Tumor Volume ([2]; day 27 post-implantation) [mm^3] | Average Tumor Volume ([2]; day 31 post-implantation) [mm^3] | Average Tumor Volume ([2]; day 34 post-implantation) [mm^3] | Average Tumor Volume ([2]; day 38 post-implantation) [mm^3] | Average Tumor Volume ([2]; day 40 post-implantation) [mm^3] | Average Tumor Volume ([2]; day 44 post-implantation) [mm^3] | Antiproliferative effect (cell proliferation, luminescence) ([3]; 0.04 μM) [% UTC] | Antiproliferative effect (cell proliferation, luminescence) ([3]; 0.2 μM) [% UTC] | Antiproliferative effect (cell proliferation, luminescence) ([3]; 1 μM) [% UTC] | Antiproliferative effect (cell proliferation, luminescence) ([3]; 5 μM) [% UTC] | human Yap1 mRNA expression ([4]; 0.08 μM) [% UTC] | human Yap1 mRNA expression ([4]; 0.4 μM) [% UTC] | human Yap1 mRNA expression ([4]; 2 μM) [% UTC] | also measured
1 | CGCCGATAAGGTACAC (cEt gapmer, phosphorothioate backbone, further chemistry not given here) [ION 792169, reference compound] | 74 | 0.85 | 123 | 262 | 367 | 531 | 774 | 805 | 962 | 1057 | 1171 | 1160 | 1069 | 98 | 97 | 99 | 92 | 95 | 90 | 97 | human Yap1 mRNA expression ([4]; 10 μM): 88 % UTC; human Yap1 mRNA expression ([5]; 0.04 μM): 92 % UTC; human Yap1 mRNA expression ([5]; 0.2 μM): 106 % UTC; human Yap1 mRNA expression ([5]; 1 μM): 105 % UTC; human Yap1 mRNA expression ([5]; 5 μM): 104 % UTC; human Yap1 mRNA expression ([6]; 0.04 μM): 91 % UTC; human Yap1 mRNA expression ([6]; 0.2 μM): 94 % UTC; human Yap1 mRNA expression ([6]; 1 μM): 93 % UTC; human Yap1 mRNA expression ([6]; 5 μM): 98 % UTC; Antiproliferative effect (cell proliferation, luminescence) ([7]; 0.04 μM): 97 % UTC; Antiproliferative effect (cell proliferation, luminescence) ([7]; 0.2 μM): 104 % UTC; Antiproliferative effect (cell proliferation, luminescence) ([7]; 1 μM): 106 % UTC; Antiproliferative effect (cell proliferation, luminescence) ([7]; 5 μM): 108 % UTC
2 | 715487 (kA*kT*kT*dA*d[5mC]*dT*dT*d[5mC]*dA*dT*dA*dG*d[5mC]*kT*kT*kA) [compound 715487] |  |  |  |  |  |  |  |  |  |  |  |  |  | 87 | 90 | 69 | 20 | 35 | 23 | 5 | human Yap1 mRNA expression ([4]; 10 μM): 3 % UTC; human Yap1 mRNA expression ([5]; 0.04 μM): 81 % UTC; human Yap1 mRNA expression ([5]; 0.2 μM): 46 % UTC; human Yap1 mRNA expression ([5]; 1 μM): 23 % UTC; human Yap1 mRNA expression ([5]; 5 μM): 13 % UTC; human Yap1 mRNA expression ([6]; 0.04 μM): 77 % UTC; human Yap1 mRNA expression ([6]; 0.2 μM): 49 % UTC; human Yap1 mRNA expression ([6]; 1 μM): 22 % UTC; human Yap1 mRNA expression ([6]; 5 μM): 7 % UTC; Antiproliferative effect (cell proliferation, luminescence) ([7]; 0.04 μM): 91 % UTC; Antiproliferative effect (cell proliferation, luminescence) ([7]; 0.2 μM): 90 % UTC; Antiproliferative effect (cell proliferation, luminescence) ([7]; 1 μM): 86 % UTC; Antiproliferative effect (cell proliferation, luminescence) ([7]; 5 μM): 79 % UTC
3 | 1198872 (TGTATGTCAGAAGAGT; chemically modified gapmer, further chemistry not given here) [compound 1198872] |  |  |  |  |  |  |  |  |  |  |  |  |  |  |  |  |  |  |  |  | ALT [8]: 192 U/L; AST [8]: 207 U/L; BUN [8]: 22 mg/dL; TBIL [8]: 0.25 mg/dL
4 | 1198439 (AGTGTATGTCAGAAGA; sugar, 5-methylcytosine, phosphorothioate modifications, further chemistry not given here) [compound 1198439] |  |  |  |  |  |  |  |  |  |  |  |  |  |  |  |  |  |  |  |  | ALT [8]: 210 U/L; AST [8]: 219 U/L; BUN [8]: 18 mg/dL; TBIL [8]: 0.25 mg/dL
5 | 1198728 (TATTAGAGTATGTGGC; modified gapmer, further chemistry not given here) [compound 1198728] | 40 | 0.88 | 113 | 253 | 423 | 621 | 835 | 988 | 1123 | 1233 | 1239 | 1277 | 1277 |  |  |  |  |  |  |  | 
